According to the supplement of paper PMC8253809:
± gives the standard deviation of the averaged measurements.

Assays:
Assay in all cases: growth inhibition relative to DMSO (0) and positive control (1) (fraction); higher = more growth inhibition
[1] = test system: HGGX6 (H3.3 G34R paediatric high-grade glioma line)
Experimental: (§1)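 Single-agent arm (compound 1 only) of the paxalisib / mirdametinib dose-matrix plates, 7 days, adherent 384-well. CellTiter-Glo RLU was normalised to fractional activity between DMSO (0) and the positive control (1).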

[2] = test system: DIPGX37 (H3.3 K27M diffuse intrinsic pontine glioma line)
Experimental: as §1

[3] = test system: iASTRO (astrocyte control)
Experimental: as §1

[4] = test system: DIPGX7 (H3.3 K27M diffuse intrinsic pontine glioma line)
Experimental: as §1

[5] = test system: HGGX42 (H3.3 G34R paediatric high-grade glioma line)
Experimental: as §1

[6] = test system: DIPGX29 (H3.3 K27M diffuse intrinsic pontine glioma line)
Experimental: as §1

[7] = test system: HABS (astrocyte control)
Experimental: as §1

[8] = test system: HGGX6; remark: listed apart in the source
Experimental: (§2)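 Single-agent arm (compound 2 only) of the paxalisib / mirdametinib dose-matrix plates, 7 days, adherent 384-well. CellTiter-Glo RLU was normalised to fractional activity between DMSO (0) and the positive control (1).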

[9] = test system: DIPGX37; remark: listed apart in the source
Experimental: as §2

[10] = test system: iASTRO; remark: listed apart in the source
Experimental: as §2

[11] = test system: DIPGX7; remark: listed apart in the source
Experimental: as §2

[12] = test system: HGGX42; remark: listed apart in the source
Experimental: as §2

[13] = test system: DIPGX29; remark: listed apart in the source
Experimental: as §2

[14] = test system: HABS; remark: listed apart in the source
Experimental: as §2

O=C(NOC[C@H](O)CO)c1ccc(F)c(F)c1Nc1ccc(I)cc1F
growth inhibition ([1]; 0.009766 µM): -0.059 ± 0.083
growth inhibition ([1]; 0.01953 µM): -0.035 ± 0.067
growth inhibition ([1]; 0.03906 µM): -0.0725 ± 0.049
growth inhibition ([1]; 0.07812 µM): -0.0513 ± 0.081
growth inhibition ([1]; 0.15625 µM): -0.0455 ± 0.091
growth inhibition ([1]; 0.3125 µM): 0.0143 ± 0.071
growth inhibition ([1]; 0.625 µM): 0.0902 ± 0.065
growth inhibition ([1]; 1.25 µM): 0.0994 ± 0.044
growth inhibition ([1]; 5 µM): 0.353 ± 0.031
growth inhibition ([1]; 20 µM): 0.581 ± 0.034
growth inhibition ([2]; 0.009766 µM): -0.0815 ± 0.057
growth inhibition ([2]; 0.01953 µM): -0.107 ± 0.047
growth inhibition ([2]; 0.03906 µM): -0.0915 ± 0.064
growth inhibition ([2]; 0.07812 µM): -0.0274 ± 0.049
growth inhibition ([2]; 0.15625 µM): 0.0635 ± 0.065
growth inhibition ([2]; 0.3125 µM): 0.18 ± 0.039
growth inhibition ([2]; 0.625 µM): 0.339 ± 0.041
growth inhibition ([2]; 1.25 µM): 0.511 ± 0.032
growth inhibition ([2]; 5 µM): 0.9225 ± 0.0066
growth inhibition ([2]; 20 µM): 0.9749 ± 0.0035
growth inhibition ([3]; 0.009766 µM): 0.0411 ± 0.07
growth inhibition ([3]; 0.01953 µM): 0.0442 ± 0.061
growth inhibition ([3]; 0.03906 µM): 0.0806 ± 0.067
growth inhibition ([3]; 0.07812 µM): 0.0816 ± 0.075
growth inhibition ([3]; 0.15625 µM): 0.113 ± 0.088
growth inhibition ([3]; 0.3125 µM): 0.124 ± 0.08
growth inhibition ([3]; 0.625 µM): 0.173 ± 0.1
growth inhibition ([3]; 1.25 µM): 0.119 ± 0.1
growth inhibition ([3]; 5 µM): 0.0668 ± 0.11
growth inhibition ([3]; 20 µM): 0.0562 ± 0.074
growth inhibition ([4]; 0.009766 µM): 0.00514 ± 0.056
growth inhibition ([4]; 0.01953 µM): -0.0128 ± 0.076
growth inhibition ([4]; 0.03906 µM): -0.0429 ± 0.087
growth inhibition ([4]; 0.07812 µM): -0.0583 ± 0.075
growth inhibition ([4]; 0.15625 µM): -0.0706 ± 0.066
growth inhibition ([4]; 0.3125 µM): -0.0675 ± 0.058
growth inhibition ([4]; 0.625 µM): -0.0189 ± 0.064
growth inhibition ([4]; 1.25 µM): 0.069 ± 0.053
growth inhibition ([4]; 5 µM): 0.226 ± 0.022
growth inhibition ([4]; 20 µM): 0.169 ± 0.025
growth inhibition ([5]; 0.009766 µM): -0.0885 ± 0.058
growth inhibition ([5]; 0.01953 µM): -0.0961 ± 0.053
growth inhibition ([5]; 0.03906 µM): -0.107 ± 0.081
growth inhibition ([5]; 0.07812 µM): -0.127 ± 0.071
growth inhibition ([5]; 0.15625 µM): -0.145 ± 0.051
growth inhibition ([5]; 0.3125 µM): -0.165 ± 0.056
growth inhibition ([5]; 0.625 µM): -0.133 ± 0.056
growth inhibition ([5]; 1.25 µM): -0.126 ± 0.068
growth inhibition ([5]; 5 µM): 0.241 ± 0.057
growth inhibition ([5]; 20 µM): 0.441 ± 0.071
growth inhibition ([6]; 0.009766 µM): 0.0664 ± 0.033
growth inhibition ([6]; 0.01953 µM): 0.079 ± 0.049
growth inhibition ([6]; 0.03906 µM): 0.113 ± 0.054
growth inhibition ([6]; 0.07812 µM): 0.122 ± 0.036
growth inhibition ([6]; 0.15625 µM): 0.121 ± 0.033
growth inhibition ([6]; 0.3125 µM): 0.185 ± 0.045
growth inhibition ([6]; 0.625 µM): 0.301 ± 0.039
growth inhibition ([6]; 1.25 µM): 0.44 ± 0.019
growth inhibition ([6]; 5 µM): 0.787 ± 0.025
growth inhibition ([6]; 20 µM): 0.903 ± 0.015
growth inhibition ([7]; 0.009766 µM): -0.13 ± 0.075
growth inhibition ([7]; 0.01953 µM): -0.164 ± 0.066
growth inhibition ([7]; 0.03906 µM): -0.228 ± 0.077
growth inhibition ([7]; 0.07812 µM): -0.269 ± 0.067
growth inhibition ([7]; 0.15625 µM): -0.234 ± 0.049
growth inhibition ([7]; 0.3125 µM): -0.0414 ± 0.042
growth inhibition ([7]; 0.625 µM): 0.126 ± 0.04
growth inhibition ([7]; 1.25 µM): 0.275 ± 0.038
growth inhibition ([7]; 5 µM): 0.665 ± 0.016
growth inhibition ([7]; 20 µM): 0.853 ± 0.014
growth inhibition ([8]; 0.03906 µM): -0.174 ± 0.017
growth inhibition ([8]; 0.07812 µM): -0.0709 ± 0.045
growth inhibition ([8]; 0.15625 µM): -0.0557 ± 0.046
growth inhibition ([8]; 0.3125 µM): 0.064 ± 0.054
growth inhibition ([8]; 0.625 µM): 0.133 ± 0.033
growth inhibition ([8]; 1.25 µM): 0.156 ± 0.07
growth inhibition ([8]; 5 µM): 0.414 ± 0.039
growth inhibition ([8]; 20 µM): 0.596 ± 0.03
growth inhibition ([9]; 0.03906 µM): -0.168 ± 0.035
growth inhibition ([9]; 0.07812 µM): -0.0488 ± 0.028
growth inhibition ([9]; 0.15625 µM): 0.038 ± 0.017
growth inhibition ([9]; 0.3125 µM): 0.147 ± 0.014
growth inhibition ([9]; 0.625 µM): 0.274 ± 0.021
growth inhibition ([9]; 1.25 µM): 0.418 ± 0.02
growth inhibition ([9]; 5 µM): 0.857 ± 0.022
growth inhibition ([9]; 20 µM): 0.9777 ± 0.0051
growth inhibition ([10]; 0.03906 µM): 0.0464 ± 0.04
growth inhibition ([10]; 0.07812 µM): 0.0732 ± 0.046
growth inhibition ([10]; 0.15625 µM): 0.0675 ± 0.063
growth inhibition ([10]; 0.3125 µM): 0.0849 ± 0.071
growth inhibition ([10]; 0.625 µM): 0.116 ± 0.077
growth inhibition ([10]; 1.25 µM): 0.0295 ± 0.097
growth inhibition ([10]; 5 µM): 0.0268 ± 0.089
growth inhibition ([10]; 20 µM): 0.058 ± 0.09
growth inhibition ([11]; 0.03906 µM): -0.134 ± 0.019
growth inhibition ([11]; 0.07812 µM): -0.0334 ± 0.034
growth inhibition ([11]; 0.15625 µM): -0.0318 ± 0.059
growth inhibition ([11]; 0.3125 µM): -0.00916 ± 0.051
growth inhibition ([11]; 0.625 µM): 0.0291 ± 0.044
growth inhibition ([11]; 1.25 µM): 0.0919 ± 0.03
growth inhibition ([11]; 5 µM): 0.221 ± 0.018
growth inhibition ([11]; 20 µM): 0.144 ± 0.034
growth inhibition ([12]; 0.03906 µM): -0.199 ± 0.028
growth inhibition ([12]; 0.07812 µM): -0.114 ± 0.032
growth inhibition ([12]; 0.15625 µM): -0.121 ± 0.013
growth inhibition ([12]; 0.3125 µM): -0.215 ± 0.043
growth inhibition ([12]; 0.625 µM): -0.198 ± 0.026
growth inhibition ([12]; 1.25 µM): -0.0799 ± 0.028
growth inhibition ([12]; 5 µM): 0.284 ± 0.025
growth inhibition ([12]; 20 µM): 0.494 ± 0.03
growth inhibition ([13]; 0.03906 µM): 0.0243 ± 0.038
growth inhibition ([13]; 0.07812 µM): 0.134 ± 0.032
growth inhibition ([13]; 0.15625 µM): 0.108 ± 0.027
growth inhibition ([13]; 0.3125 µM): 0.159 ± 0.05
growth inhibition ([13]; 0.625 µM): 0.301 ± 0.025
growth inhibition ([13]; 1.25 µM): 0.477 ± 0.025
growth inhibition ([13]; 5 µM): 0.795 ± 0.018
growth inhibition ([13]; 20 µM): 0.903 ± 0.013
growth inhibition ([14]; 0.03906 µM): -0.334 ± 0.054
growth inhibition ([14]; 0.07812 µM): -0.268 ± 0.041
growth inhibition ([14]; 0.15625 µM): -0.258 ± 0.019
growth inhibition ([14]; 0.3125 µM): -0.201 ± 0.026
growth inhibition ([14]; 0.625 µM): -0.0364 ± 0.023
growth inhibition ([14]; 1.25 µM): 0.168 ± 0.015
growth inhibition ([14]; 5 µM): 0.618 ± 0.015
growth inhibition ([14]; 20 µM): 0.797 ± 0.02
